How the values were obtained:
Assay type in all cases: cell-based
[1] = system: dopaminergic neuron induced from human iPS cell (253G1 strain, 201B7 strain); experiment: Ability to release dopamine by high-KCl stimulation on day 50 of culture; conditions: HBSS with 55 mM KCl vs HBSS
Procedure: Floor plate cells were induced by a method similar to the methods described in Reference Examples 1 to 3, differentiation induction was performed by exchanging the medium with (A) Neuro/B27 added with 3 factors of ascorbic acid, dbcAMP and PD0325901, or (B) Neuro/B27 added with 2 factors of ascorbic acid and dbcAMP from day 13 of culture, and an ability to release dopamine by stimulation with high-KCl was evaluated on day 50 of culture.
The above-mentioned evaluation was performed as follows. The medium of the cells after differentiation induction was exchanged with Neuro/B27, and the cells were cultured overnight. […] For the analysis, a trace biological sample analysis system and HTEC500 (Eicom Corporation), electrochemical detector EPC-500 (Eicom Corporation) were used, and the amount of dopamine contained in the sample was measured according to the manual of Eicom Corporation (Eicom information No. 25). […] However, when differentiation was induced using the aforementioned (A) Neuro/B27, an increase in the amount of dopamine released by stimulation with high-KCl could be detected with good reproducibility even in a different lot.

[2] = system: floor plate cells induced from human iPS cell (253G1 strain, 201B7 strain); experiment: Study of various MEK inhibitors (including FGFR inhibitor): NURR1 expression by quantitative RT-PCR on day 45; conditions: 253G1 strain, added to ascorbic acid and dbcAMP, 3 μM PD0325901, 3 μM PD184352, 10 μM SU5402
Description: Whether midbrain dopaminergic neuron can be induced in a medium containing any of PD184352 (Axon MedChem), SU5402 (FGF receptor (FGFR) inhibitor, Wako Pure Chemical Industries, Ltd.) and PD173074 (FGFR inhibitor, Axon MedChem) instead of PD0325901 in the aforementioned (A) Neuro/B27 was studied.
Floor plate cells were induced by a method similar to the methods described in Reference Examples 1 to 3, the medium was exchanged with Neuro/B27 added with (1) 3 factors of ascorbic acid, dbcAMP and PD0325901, (2) 2 factors of ascorbic acid and dbcAMP, (3) ascorbic acid, dbcAMP and 3 μM PD184352, (4) ascorbic acid, dbcAMP and 10 μM SU5402, or (5) ascorbic acid, dbcAMP and 0.1 μM PD173074 on day 13 of culture, and the cells were cultured at 37° C. under 5% CO2 for not less than 30 days. The medium was exchanged every 3-4 days during the above-mentioned culture periods. On day 45 of culture, the cells were recovered, and expression variation of NURR1 was examined. In 253G1 strain, the expression of NURR1 was elevated by the addition of PD0325901, PD184352 or SU5402 and, in 201B7 strain, the expression of NURR1 was elevated by the addition of all 4 kinds.

[3] = system: floor plate cells induced from human iPS cell (253G1 strain, 201B7 strain); experiment: Immunofluorescent staining of TH, NURR1 and FOXA2 proteins on days 45-52 of culture; conditions: PD0325901 added to ascorbic acid and dbcAMP (Example 1, (A))
Procedure: Then, the expression of midbrain dopaminergic neuron markers TH, NURR1 and FOXA2 proteins was examined by immunofluorescent staining using anti-TH antibody, anti-NURR1 antibody and anti-FOXA2 antibody. Floor plate cells were induced by a method similar to the methods described in Reference Examples 1 to 3, differentiation induction was performed by exchanging the medium with (A) Neuro/B27 added with 3 factors of ascorbic acid, dbcAMP and PD0325901, or (B) Neuro/B27 added with 2 factors of ascorbic acid and dbcAMP from day 13 of culture, 4% PFA was added on days 45-52 of culture, and the cells were fixed at room temperature for 30 min. The cells were reacted with anti-TH antibody (AB152, Nihon Millipore K.K.), anti-NURR1 antibody (PP-N1404-00, Perseus Proteomics) and anti-FOXA2 antibody (sc-6544, Santa Cruz) as the primary antibodies, and sequentially reacted with Alexa488-labeled secondary antibody, Alexa568-labeled secondary antibody and Alexa647-labeled secondary antibody, corresponding to the immunized animal of the primary antibody, as the secondary antibodies, and observed under a fluorescence microscope. […]

[4] = system: floor plate cells induced from human iPS cell (253G1 strain, 201B7 strain); experiment: NURR1 expression by quantitative RT-PCR on day 45 after differentiation of floor plate cells; conditions: 3 μM PD0325901 added in addition to ascorbic acid and dbcAMP
Procedure: Floor plate cells were induced by a method similar to the methods described in Reference Examples 1 to 3, the medium was exchanged with (A) Neuro/B27 added with 3 factors of 0.1 mM ascorbic acid (SIGMA), 0.5 mM dibutyryl-cAMP (SIGMA, hereinafter to be indicated as dbcAMP) and 3 μM PD0325901, or (B) Neuro/B27 added with 2 factors of 0.1 mM ascorbic acid and 0.5 mM dbcAMP on day 13 of culture, and the cells were cultured at 37° C. under 5% CO2 for not less than 30 days. The medium was exchanged every 3-4 days during the above-mentioned culture periods. On day 45 of culture, the cells were recovered, and expression variation of NURR1 known as a transcription factor extremely important for the differentiation, maturation and maintenance of functions of midbrain dopaminergic neuron was examined.

[5] = system: floor plate cells induced from human iPS cell (253G1 strain, 201B7 strain); experiment: TH and NURR1 expression by quantitative RT-PCR on day 26 of culture; conditions: dbcAMP and activin A
Procedure: Floor plate cells were induced by a method similar to the methods described in Reference Examples 1 to 3, the medium was exchanged with Neuro/B27 added with one or more kinds of 0.1 mM ascorbic acid, 0.5 mM dbcAMP, 3 μM PD0325901, and 20 ng/ml activin A (R&D), or Neuro/B27 without addition of ascorbic acid, dbcAMP, PD0325901, and activin A as a control on day 12 of culture, and the cells were cultured for 14 days more (total 26 days). The cells after culture were recovered, and the expression variation of TH and NURR1 was examined by a method similar to Reference Example 3. […] On the other hand, when ascorbic acid, dbcAMP and PD0325901 were added, the expression level was lower at the time point of day 26 of culture than the addition of ascorbic acid, dbcAMP and activin A.

[6] = system: cryopreserved day 26 cells induced from human iPS cell (253G1 strain, 201B7 strain); experiment: Dopaminergic neuron marker expression by quantitative RT-PCR 2 weeks after thawing of cells cryopreserved on day 26; conditions: Y27632 10 μM
Procedure: Midbrain floor plate cells were induced by a method similar to the methods described in Reference Examples 1 to 3, the medium was exchanged with Neuro/B27 added with 0.1 mM ascorbic acid, 0.5 mM dbcAMP, 3 μM PD0325901, and 20 ng/ml activin A (R&D) on day 12 of culture, and the cells were cultured for 14 days more (total 26 days). After culture, the cells were washed with PBS, and dispersed by treating with Accutase (Innovative Cell Technologies) at 37° C. for 20-30 min. After centrifugal washing, the cells were suspended in cell banker 2 (Juji Field Inc.) at a concentration of about 2×10^6 cells/ml/tube, and cryopreserved at −80° C. The cryopreserved cells were thawed by immersion in a thermostatic tank at 37° C. and, after centrifugal washing, seeded in a 96 well plate at a density of 2×10^4 cells per well, and cultured at 37° C. under 5% CO2 for 2 weeks. As the above-mentioned 96 well plate, one coated at 37° C. overnight with Matrigel 1/30-1/40 diluted with DMEM/F12 (Life Technologies Corporation) or Laminin (Trevigen Inc.) diluted with DMEM/F12 at a concentration of 10 μg/ml was used. As the culture medium, Neuro/B27 added with one or more kinds of 0.1 mM ascorbic acid, 0.5 mM dbcAMP, 3 μM PD0325901, and 20 ng/ml activin A, or Neuro/B27 without addition of ascorbic acid, dbcAMP, PD0325901, and activin A as a control was used. […]

[7] = system: human iPS cell (253G1 strain, 201B7 strain); experiment: Time-course expression of differentiation markers by quantitative RT-PCR in the three-step differentiation system; conditions: conditions excluding only purmorphamine (-Pur)
Procedure: In step 1, the cells were cultured in Neuro/B27 added with 0.5 μM LDN193189, 10 μM SB431542, 0.5 μM purmorphamine, 200 ng/ml SHH and 1 μM CHIR99021 for 5 days. In step 2, the cells were cultured in Neuro/B27 added with 0.5 μM LDN193189 and 1 μM CHIR99021 for 8 days (total 13 days). In step 3, the cells were cultured in Neuro/B27 added with 0.1 mM ascorbic acid, 0.5 mM dbcAMP and 3 μM PD0325901 for 32 days (total 45 days). After culture, time-course expression variation of various differentiation markers was measured by a method similar to Reference Example 3.
As a control, the cells were cultured under conditions without addition of a differentiation inducing factor (− in Figure), conditions excluding only SHH (−SHH in Figure) or conditions excluding only purmorphamine (−Pur in Figure). Also, the group subjected to differentiation induction under the conditions shown in FIG. 9 from step 2 onward was studied.

O=C(NOC[C@H](O)CO)c1ccc(F)c(F)c1Nc1ccc(I)cc1F [PD0325901, N-[(2R)-2,3-dihydroxypropoxy]-3,4-difluoro-2-[(2-fluoro-4-iodophenyl)amino]-benzamide]
increase in the amount of dopamine released by stimulation with high-KCl [1]: stably detected | expression of NURR1 [2]: elevated | staining with NURR1 protein [3]: strongly-positive | expression of NURR1 [4]: further elevated highly | expression of TH and NURR1 ([5]; 3 μM PD0325901 added together with ascorbic acid): further elevated highly | expression level of TH and NURR1 ([5]; ascorbic acid, dbcAMP and PD0325901 compared with ascorbic acid): lower

C[C@@H](N)[C@H]1CC[C@H](C(=O)Nc2ccncc2)CC1 [Y27632, (R)-(+)-trans-4-(1-aminoethyl)-N-(4-pyridyl)cyclohexanecarboxamide]
expression levels of the markers, presence or absence of Y27632 [6]: scarcely different

c1ccc2c(Oc3nc(Nc4ccc(N5CCOCC5)cc4)c4ncn(C5CCCCC5)c4n3)cccc2c1 [purmorphamine, N-(4-morpholinophenyl)-2-(1-naphthyloxy)-9-cyclohexyl-9H-purin-6-amine]
expression of FOXA2 [7]: low
